Drawing on patent publication US8575156B2, “Cyclic inhibitors of 11β-hydroxysteroid dehydrogenase 1” (Vitae Pharmaceuticals, Inc., priority 2007, dated 2013), this text covers IC50 and inhibition for 31 compounds.

A word on the IC50: it is the concentration needed to halve the response being measured. A low value points to greater potency. The inhibition is the percentage by which the read-out fell short of the control.

Where two headings read alike, the source gives them in different places.

This assay concerns the target 11β-HSD1 (Homo sapiens, UniProt P28845). In words: biochemical. To be noted: for IC50: IC50 Range.
[1] abbreviates: Biological Test Example 1, microsomes from CHO cells overexpressing human 11β-HSD1.
Where [2] appears, read: read-out: Average % inhibition at 100 nM, Biological Test Example 1, 100 nM.
The mark [3] stands for this setting: read-out: Average % inhibition at 100 nM.

Chain of 11β-HSD1 (P28845 whole entry): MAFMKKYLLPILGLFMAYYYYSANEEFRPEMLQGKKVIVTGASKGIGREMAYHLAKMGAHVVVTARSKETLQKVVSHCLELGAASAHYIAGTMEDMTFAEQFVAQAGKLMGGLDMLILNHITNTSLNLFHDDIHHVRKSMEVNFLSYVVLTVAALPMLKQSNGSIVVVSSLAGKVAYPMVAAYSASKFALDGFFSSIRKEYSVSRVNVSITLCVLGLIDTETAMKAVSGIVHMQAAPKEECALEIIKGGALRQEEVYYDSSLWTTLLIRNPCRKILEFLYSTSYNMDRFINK

Under setting [1], `C[C@@H](C1CCCCC1)N1CC[C@](CCC(N)=O)(c2ccc(F)cc2)OC1=O` [EXAMPLE 317, 3-((R)-3-((S)-1-cyclohexylethyl)-6-(4-fluorophenyl)-2-oxo-1,3-oxazinan-6-yl)propanamide] had an IC50 below 100 nM. Further, under setting [2], the inhibition at 0.1 µM stood at 87.5%.
For `C[C@@H](C1CCCCC1)N1CC[C@](CCNS(C)(=O)=O)(c2ccc(F)cc2)OC1=O` [EXAMPLE 318, N-(2-((S)-3-((S)-1-cyclohexylethyl)-6-(4-fluorophenyl)-2-oxo-1,3-oxazinan-6-yl)ethyl)methanesulfonamide], the IC50 under setting [1] is below 100 nM. The inhibition at 0.1 µM under setting [2] was determined as 83.8%.
On the same counts, the results for `C[C@@H](C1CCCCC1)N1CC[C@](CCCNS(C)(=O)=O)(c2ccc(F)cc2)OC1=O` [EXAMPLE 319, N-(3-((R)-3-((S)-1-cyclohexylethyl)-6-(4-fluorophenyl)-2-oxo-1,3-oxazinan-6-yl)propyl)methanesulfonamide] are below 100 nM and 93.4%.
Under setting [1], `CC(=O)C[C@]1(c2ccc(F)cc2)CCN([C@@H](C)c2ccc(OC(F)F)cc2)C(=O)O1` [EXAMPLE 321, (S)-3-((S)-1-(4-(difluoromethoxy)phenyl)ethyl)-6-(4-fluorophenyl)-6-(2-oxopropyl)-1,3-oxazinan-2-one] returned an IC50 below 100 nM. Besides, the inhibition at 0.1 µM under setting [2] came out at 96.1%.
On the same counts, the results for `CC[C@@H](c1ccc(OC(F)F)cc1)N1CC[C@](CCC(N)=O)(c2ccc(F)cc2)OC1=O` [EXAMPLE 326, 3-((R)-3-((S)-1-(4-(difluoromethoxy)phenyl)propyl)-6-(4-fluorophenyl)-2-oxo-1,3-oxazinan-6-yl)propanamide] are below 100 nM and 97.7%.
On the same counts, the results for `C[C@@H](c1ccc(OC(F)F)cc1)N1CC[C@](CCO)(c2ccccc2)OC1=O` [EXAMPLE 327, (S)-3-((S)-1-(4-(difluoromethoxy)phenyl)ethyl)-6-(2-hydroxyethyl)-6-phenyl-1,3-oxazinan-2-one] are below 100 nM and 97.2%.
In turn, `C[C@@H](c1ccc(OC(F)F)cc1)N1CC[C@](CCCO)(c2ccccc2)OC1=O` [EXAMPLE 329, (R)-3-((S)-1-(4-(difluoromethoxy)phenyl)ethyl)-6-(3-hydroxypropyl)-6-phenyl-1,3-oxazinan-2-one] came in with a half-maximal inhibitory concentration (IC50) under setting [1] below 100 nM. Also, under setting [2], the inhibition at 0.1 µM was 99.8%.
With `C[C@@H](c1ccc(OC(F)F)cc1)N1CC[C@](CCCNS(C)(=O)=O)(c2ccccc2)OC1=O` [EXAMPLE 331, N-(3-((R)-3-((S)-1-(4-(difluoromethoxy)phenyl)ethyl)-2-oxo-6-phenyl-1,3-oxazinan-6-yl)propyl)methanesulfonamide], under setting [1], the IC50 is below 100 nM. Besides, the inhibition at 0.1 µM under setting [2] was 97.1%.
As for `CC(C)(C)OC(=O)N1CCC[C@H](N2CC[C@](CCC(N)=O)(c3ccc(F)cc3)OC2=O)C1` [EXAMPLE 339, (S)-tert-butyl 3-((R)-6-(3-amino-3-oxopropyl)-6-(4-fluorophenyl)-2-oxo-1,3-oxazinan-3-yl)piperidine-1-carboxylate], the IC50 under setting [1] is below 100 nM. Also, under setting [2], the inhibition at 0.1 µM turned out to be 65.9%.
`O=C(OCc1ccccc1)N1CCC[C@H](N2CC[C@](CCCO)(c3ccc(F)cc3)OC2=O)C1` [EXAMPLE 340, (S)-benzyl 3-((R)-6-(4-fluorophenyl)-6-(3-hydroxypropyl)-2-oxo-1,3-oxazinan-3-yl)piperidine-1-carboxylate] showed an IC50 under setting [1] below 100 nM. The inhibition at 0.1 µM under setting [3] worked out at 75.9%.
The compound `O=C1O[C@@](CCCO)(c2ccc(F)cc2)CCN1[C@H]1CCCN(Cc2ccccc2)C1` [EXAMPLE 341, (R)-3-((S)-1-benzylpiperidin-3-yl)-6-(4-fluorophenyl)-6-(3-hydroxypropyl)-1,3-oxazinan-2-one] had a concentration for half-maximal inhibition (IC50) below 100 nM. Moreover, under setting [3], the inhibition at 0.1 µM worked out at 82%.
Under setting [1], `O=C1OC(CCCO)(c2ccc(F)cc2)CCN1Cc1ccc(Cl)cc1Cl` (centres unmarked) [EXAMPLE 343, 3-(2,4-dichlorobenzyl)-6-(4-fluorophenyl)-6-(3-hydroxypropyl)-1,3-oxazinan-2-one] gave a half-inhibitory concentration (IC50) below 100 nM. Moreover, the inhibition at 0.1 µM under setting [3] was determined as 82.3%.
With `C=CCC1(c2ccc(F)cc2)CCN(Cc2cc(Cl)ccc2Cl)C(=O)O1` (centres unmarked) [EXAMPLE 344, 6-allyl-3-(2,5-dichlorobenzyl)-6-(4-fluorophenyl)-1,3-oxazinan-2-one], the IC50 under setting [1] is below 100 nM. In addition, the inhibition at 0.1 µM under setting [2] worked out at 65.7%.
On the same counts, the results for `O=C1OC(CCCO)(c2ccc(F)cc2)CCN1Cc1cc(Cl)ccc1Cl` (centres unmarked) [EXAMPLE 345, 3-(2,5-dichlorobenzyl)-6-(4-fluorophenyl)-6-(3-hydroxypropyl)-1,3-oxazinan-2-one] are below 100 nM and 74.7%.
`C=CCC1(c2ccc(F)cc2)CCN(Cc2c(Cl)cccc2Cl)C(=O)O1` (centres unmarked) [EXAMPLE 346, 6-allyl-3-(2,6-dichlorobenzyl)-6-(4-fluorophenyl)-1,3-oxazinan-2-one]: the concentration for half-maximal inhibition (IC50) under setting [1] is below 100 nM. The inhibition at 0.1 µM under setting [2] worked out at 94%.
The compound `O=C1OC(CCCO)(c2ccc(F)cc2)CCN1Cc1c(Cl)cccc1Cl` (centres unmarked) [EXAMPLE 347, 3-(2,6-dichlorobenzyl)-6-(4-fluorophenyl)-6-(3-hydroxypropyl)-1,3-oxazinan-2-one] had a half-maximal inhibitory concentration (IC50) under setting [1] below 100 nM. Also, under setting [2], the inhibition at 0.1 µM was found to be 96%.
On the same counts, the results for `O=C1OC(CCCO)(c2ccc(F)cc2)CCN1Cc1c(F)cccc1F` (centres unmarked) [EXAMPLE 348, 3-(2,6-difluorobenzyl)-6-(4-fluorophenyl)-6-(3-hydroxypropyl)-1,3-oxazinan-2-one] are below 100 nM and 48.9%.
On the same counts, the results for `O=C1OC(CCCO)(c2ccc(F)cc2)CCN1Cc1c(F)cccc1Cl` (centres unmarked) [EXAMPLE 349, 3-(2-chloro-6-fluorobenzyl)-6-(4-fluorophenyl)-6-(3-hydroxypropyl)-1,3-oxazinan-2-one] are below 100 nM and 89.8%.
`C=CCC1(c2ccc(F)cc2)CCN(Cc2ccccc2Br)C(=O)O1` (centres unmarked) [EXAMPLE 350, 6-allyl-3-(2-bromobenzyl)-6-(4-fluorophenyl)-1,3-oxazinan-2-one] came in with a half-inhibitory concentration (IC50) under setting [1] below 100 nM. Moreover, the inhibition at 0.1 µM under setting [2] is 91.8%.
On the same counts, the results for `O=C1OC(CCCO)(c2ccc(F)cc2)CCN1Cc1ccccc1Br` (centres unmarked) [EXAMPLE 351, 3-(2-bromobenzyl)-6-(4-fluorophenyl)-6-(3-hydroxypropyl)-1,3-oxazinan-2-one] are below 100 nM and 83.1%.
On the same counts, the results for `COC(=O)c1ccccc1CN1CC[C@](CCCO)(c2ccc(F)cc2)OC1=O` [EXAMPLE 352, (R)-methyl 2-((6-(4-fluorophenyl)-6-(3-hydroxypropyl)-2-oxo-1,3-oxazinan-3-yl)methyl)benzoate] are below 100 nM and 60.8%.
`C[C@@H](c1cccc(Br)c1)N1CC[C@](CCCO)(c2ccc(F)cc2)OC1=O` [EXAMPLE 354, (R)-3-((S)-1-(3-bromophenyl)ethyl)-6-(4-fluorophenyl)-6-(3-hydroxypropyl)-1,3-oxazinan-2-one] had an IC50 under setting [1] below 100 nM. Under setting [2], the inhibition at 0.1 µM came out at 95.2%.
The compound `CC(O)C[C@]1(c2ccc(F)cc2)CCN([C@@H](C)c2cccc(Br)c2)C(=O)O1` (stereo partly drawn) [EXAMPLE 355, (6S)-3-((S)-1-(3-bromophenyl)ethyl)-6-(4-fluorophenyl)-6-(2-hydroxypropyl)-1,3-oxazinan-2-one] showed an IC50 under setting [1] below 100 nM. Further, the inhibition at 0.1 µM under setting [3] stood at 95.5%.
Under setting [1], `C[C@@H](c1cccc(Br)c1)N1CC[C@](CC(C)(C)O)(c2ccc(F)cc2)OC1=O` [EXAMPLE 356, (S)-3-((S)-1-(3-bromophenyl)ethyl)-6-(4-fluorophenyl)-6-(2-hydroxy-2-methylpropyl)-1,3-oxazinan-2-one] gave a half-maximal inhibitory concentration (IC50) below 100 nM. Moreover, under setting [2], the inhibition at 0.1 µM was 92%.
On the same counts, the results for `C[C@@H](c1cccc(Br)c1)N1CC[C@](CCC(C)(C)O)(c2ccc(F)cc2)OC1=O` [EXAMPLE 357, (R)-3-((S)-1-(3-bromophenyl)ethyl)-6-(4-fluorophenyl)-6-(3-hydroxy-3-methylbutyl)-1,3-oxazinan-2-one] are below 100 nM and 60.7%.
Compound `C[C@@H](c1cccc(Br)c1)N1CC[C@](CCC(N)=O)(c2ccc(F)cc2)OC1=O` [EXAMPLE 358, 3-((R)-3-((S)-1-(3-bromophenyl)ethyl)-6-(4-fluorophenyl)-2-oxo-1,3-oxazinan-6-yl)propanamide] displayed an IC50 under setting [1] below 100 nM. Moreover, the inhibition at 0.1 µM under setting [2] worked out at 84%.
`C[C@@H](c1cccc(Br)c1)N1CC[C@](CCCNS(C)(=O)=O)(c2ccc(F)cc2)OC1=O` [EXAMPLE 359, N-(3-((R)-3-((S)-1-(3-bromophenyl)ethyl)-6-(4-fluorophenyl)-2-oxo-1,3-oxazinan-6-yl)propyl)methanesulfonamide] showed an IC50 under setting [1] below 100 nM. For the same compound, the inhibition at 0.1 µM under setting [2] is 67.5%.
On the same counts, the results for `C[C@@H](c1cccc(Cl)c1)N1CC[C@](CCCO)(c2ccc(F)cc2)OC1=O` [EXAMPLE 360, (R)-3-((S)-1-(3-chlorophenyl)ethyl)-6-(4-fluorophenyl)-6-(3-hydroxypropyl)-1,3-oxazinan-2-one] are below 100 nM and 97%.
On the same counts, the results for `C[C@@H](c1cccc(C#N)c1)N1CC[C@](CCCOC(=O)C(F)(F)F)(c2ccc(F)cc2)OC1=O` [EXAMPLE 361, 3-((R)-3-((S)-1-(3-cyanophenyl)ethyl)-6-(4-fluorophenyl)-2-oxo-1,3-oxazinan-6-yl)propyl 2,2,2-trifluoroacetate] are below 100 nM and 67.4%.
With `C=CC[C@]1(c2ccc(F)cc2)CCN([C@@H](C)c2cccc(C(=O)OC)c2)C(=O)O1` [EXAMPLE 362, Methyl 3-((S)-1-((R)-6-allyl-6-(4-fluorophenyl)-2-oxo-1,3-oxazinan-3-yl)ethyl)benzoate], the 50% inhibitory concentration (IC50) under setting [1] is below 100 nM. In addition, under setting [2], the inhibition at 0.1 µM came to 93.4%.
On the same counts, the results for `C[C@@H](c1cccc(CO)c1)N1CC[C@](CCCO)(c2ccc(F)cc2)OC1=O` [EXAMPLE 363, (R)-6-(4-fluorophenyl)-3-((S)-1-(3-(hydroxymethyl)phenyl)ethyl)-6-(3-hydroxypropyl)-1,3-oxazinan-2-one] are below 100 nM and 74.5%.
